Laboratory results as given in article PMC5855801, “Benzothiophenone Derivatives Targeting Mutant Forms of Estrogen Receptor-α in Hormone-Resistant Breast Cancers” (International Journal of Molecular Sciences, 2018).

How the values were obtained:
[1] = target: T1, ERα-LBD and SRC-3 (Homo sapiens, UniProt P03372); experiment: Mammalian two-hybrid assay in MDA-MB-231 cells; assay type: cell-based; details: 1 nM E2, 24 h, read-out: IC50 for interaction between ERα-LBD and SRC-3 fusion proteins
T1 construct: generated by cloning the LBD of ERα into the pACT vector; expressed in transfected cells; host or cells: MDA-MB-231
T1 sequence (P03372 311-547 limits assumed): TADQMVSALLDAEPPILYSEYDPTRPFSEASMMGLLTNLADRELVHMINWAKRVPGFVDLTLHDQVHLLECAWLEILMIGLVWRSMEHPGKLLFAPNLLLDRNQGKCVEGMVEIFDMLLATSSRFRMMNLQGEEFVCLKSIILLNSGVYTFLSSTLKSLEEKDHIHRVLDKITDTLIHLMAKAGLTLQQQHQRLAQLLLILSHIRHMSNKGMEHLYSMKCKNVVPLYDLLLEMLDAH
Experimental: The direct effect of VPC-16606 on ERα-co-activator recruitment was assessed by the mammalian two-hybrid system (Promega, Madison, WI, USA). MDA-MB-231 cells were transfected with pACT-ERα-LBD, pBIND-Steroid receptor coactivator protein-3 (pBIND-SRC-3), a luciferase reporter plasmid containing a GAL4 recognition sequence and a constitutively-active Renilla reporter plasmid. The cells were treated with a […] dilution of VPC-16606 starting at 50 µM.
For the mammalian two hybrid assay, the CheckMate^TM Mammalian Two-Hybrid System (Promega, Madison, WI, USA) was used. The pACT-ERα-LBD construct was generated by cloning the LBD of ERα into the pACT vector to produce the ERα-LBD protein fused to the VP16 activation domain. The SRC-3 coactivator peptide (aa 614–698) containing LXXLL (L, leucine; X, any amino acid) motifs 1 and 2 was cloned into the pBIND vector to generate the pBIND-SRC-3 construct expressing the SRC-3 protein fused to the GAL4-DNA binding domain. Full-length human ERα (hERαWT) was encoded on a pcDNA3.1 expression plasmid. Point mutations in the LBD were generated with the QuikChange mutagenesis kit (Stratagene, San Diego, CA, USA) using the hERαWT template. […]
MDA-MB-231 cells were seeded on 96-well plates (2 × 10^4 cells/well) in 150 µL of medium. […] After 24 h, the cells were lysed and luminescence was measured as for the luciferase transcriptional assay described above.

[2] = system: ERα-dependent genes pS2, PR, Cyclin D1 and CDC2; experiment: qRT-PCR of ERα-dependent genes in MCF7 cells; assay type: cell-based, human; details: MCF7, 24 h, 1 nM E2
Experimental: mRNA levels were analyzed after treatment of MCF7 and TamR3 cells for 24 h with the test compounds as described previously. The fold change in expression of the genes was calculated using the 2^−ΔΔCt method with GAPDH as the internal control.

[3] = target: T2, glucocorticoid receptor (GR) (Homo sapiens, UniProt P04150); experiment: Luciferase reporter selectivity assay in PC3 cells, GR; assay type: cell-based; details: 24 h
T2 construct: expressed in transfected cells; host or cells: PC3
T2 sequence (P04150 1-777): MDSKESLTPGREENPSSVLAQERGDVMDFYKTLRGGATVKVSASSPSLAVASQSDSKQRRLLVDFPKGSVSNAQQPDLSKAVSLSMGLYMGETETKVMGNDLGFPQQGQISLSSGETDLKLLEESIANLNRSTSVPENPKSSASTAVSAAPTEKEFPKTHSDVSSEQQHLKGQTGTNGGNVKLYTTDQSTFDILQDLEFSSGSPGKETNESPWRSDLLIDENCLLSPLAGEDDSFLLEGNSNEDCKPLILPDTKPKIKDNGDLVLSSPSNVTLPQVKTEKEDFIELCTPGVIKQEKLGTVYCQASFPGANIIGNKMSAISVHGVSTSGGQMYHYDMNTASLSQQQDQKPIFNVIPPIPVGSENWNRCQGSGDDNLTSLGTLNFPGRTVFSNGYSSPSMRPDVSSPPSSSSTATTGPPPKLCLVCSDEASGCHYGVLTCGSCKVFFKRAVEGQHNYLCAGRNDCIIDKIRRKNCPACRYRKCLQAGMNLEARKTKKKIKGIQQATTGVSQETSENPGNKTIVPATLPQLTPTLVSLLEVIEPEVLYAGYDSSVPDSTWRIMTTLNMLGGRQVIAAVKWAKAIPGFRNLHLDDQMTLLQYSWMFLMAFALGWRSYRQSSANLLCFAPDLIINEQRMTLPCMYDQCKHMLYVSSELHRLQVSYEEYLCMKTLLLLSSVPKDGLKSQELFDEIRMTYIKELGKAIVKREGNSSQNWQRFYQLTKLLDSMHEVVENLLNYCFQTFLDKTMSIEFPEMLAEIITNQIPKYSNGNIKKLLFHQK
Experimental: Figure 4 Further activity profile of VPC-16606. (A,B) Chromatin immunoprecipitation (ChIP) analysis of ERα binding to the pS2 enhancer, or the GAPDH promoter, in MCF7 cells. Where indicated, ERα was stimulated with 1 nM E2 or dimethyl sulfoxide (DMSO) alone, and the compound was administered at a 6 μM concentration. Sheared chromatin-protein complexes were precipitated with the ERα antibody, reverse cross-linked and analyzed by quantitative PCR. The results are normalized as fold enrichment over precipitation with a rabbit isotype control IgG antibody for each condition tested. Error bars indicate standard error of the mean (SEM) for 3 independent experiments performed in triplicates. Fold enrichment from the compound tested condition (ERα antibody) was statistically compared against DMSO + E2 with a two-tailed t-test (unpaired) *** indicates p-value <0.001. (C) Specificity of VPC-16606 was evaluated in the luciferase reporter assay. PC3 cells were transfected with plasmids expressing androgen receptor (AR), progesterone receptor (PR) or glucocorticoid receptor (GR) along with their responsive luciferase reporter constructs bearing androgen response element (ARE), progesterone response element (PRE) or glucocorticoid response element (GRE), respectively. […] Y-axis represents relative luminescence (RLU) after normalizing to constitutive renilla reporter. […]

CC(=O)N(/N=C1\Sc2c(C)cccc2C1=O)c1ccccc1Cl [VPC-16606]
IC50 [1]: 800 nM | mRNA levels of ERα-dependent genes pS2, PR, Cyclin D1 and CDC2 [2]: significantly downregulates | Effect on GR activity (luciferase) ([3]; 50 µM): some effect | Effect on GR activity (luciferase) ([3]; doses up to 25 µM): does not affect the activity
